# System: A-431
# Assay: Cytotoxicity against human A431 cells after 72 hrs by SRB method
# Type: functional, cell-based
# Conditions: A-431, 72 h
structure (smiles),measurement,value
CC(=O)O[C@H]1C(=O)[C@@]2(C)[C@H]([C@H](OC(=O)c3ccccc3)[C@]3(O)C[C@H](OC(=O)[C@H](O)[C@@H](NC(=O)c4ccccc4)c4ccccc4)C(C)=C1C3(C)C)[C@]1(OC(C)=O)CO[C@@H]1C[C@@H]2O [PACLITAXEL],IC50,25.1 nM
